These results are taken from patent US20230263789A1, “PHARMACEUTICAL COMPOSITION AND PREPARATION METHOD” (JIANGSU KANION PHARMACEUTICAL CO., LTD., priority 2020, published 2023).

A short description of this data set: Preliminary test: dissolution of compound A with an acidic regulator. The following applies: with an acidic regulator (citric acid or tartaric acid). It is filed as physicochemical. From the text: To improve the solubility of insoluble medicines, surfactants, acid-base regulators and the like are mostly used in the prior art. […] However, the granules obtained in the preliminary study process can solve the problem of solubility, but the stability is insufficient. Therefore, how to improve the solubility of the active substance provided by the present invention and ensure the stability has become a difficult point in a medicine technology.

Each structure is given as a SMILES string. Counter-ions that a name gives are not always drawn.

Turning to `CCn1nnc(-c2ccc(OCCC(C)(C)CCN3CCN(c4ccnc(N)c4)S3(=O)=O)nc2)n1` [compound A, 2-(2-aminopyridine-4-yl)-5-(5-((5-(2-ethyl-2H-tetrazole-5-yl)pyridine-2-yl)-oxy)-3,3-amyldimethyl)-1,2,5-thiadiazolidin 1,1-dioxide hydrochloride], the “Dissolution of compound A” value was “complete dissolution”.
